Source: US20100286038A1, “FORMULATION CONTAINING CYCLIN-DEPENDENT KINASE INHIBITING COMPOUND AND METHOD OF TREATING TUMORS USING THE SAME” (priority 2007, published 2010)
Read-outs that look alike come from different tables or passages of the source.

Columns and labels:
tumor [1] = conditions: for Status: 4-week schedule
Source text: Each 28-day dosing cycle comprising once weekly administration for three weeks with a week off.

[2] = 40 mg/kg once per day for five days; blood on days 1 and 7 following the last dose
Procedure: The formulation was administered to BALB/c mice at a dosage level of 40 mg/kg once per day for five days. Blood samples were obtained on days 1 and 7 following the last dose and analyzed on an Advia 120 hematology analyzer immediately after diluting 1:5 in PBS. A full differential blood count was performed, including red blood cell analysis (including reticulocyte, variant count, and hemoglobin analyses), white blood cell analysis (including differential lineage counts and peroxidase staining) and a thrombopoiesis analysis.

[3] = system: A2780 ovarian cancer cell cultures; conditions: 2 hours of exposure, 6 hour washout; no increase up to 5.0 micromolar
Procedure: After the 6 hour washout period, cell extracts were prepared and evaluated by fluorometric assay for activated caspases (RFLU).

PKCβII = molecular target: T1, PKCβII (Homo sapiens, UniProt P05771); assay: Upstate kinase Profiler counter-screening; format: biochemical
T1 construct: purchased Upstate
T1 sequence (P05771 1-673 isoform P05771-2): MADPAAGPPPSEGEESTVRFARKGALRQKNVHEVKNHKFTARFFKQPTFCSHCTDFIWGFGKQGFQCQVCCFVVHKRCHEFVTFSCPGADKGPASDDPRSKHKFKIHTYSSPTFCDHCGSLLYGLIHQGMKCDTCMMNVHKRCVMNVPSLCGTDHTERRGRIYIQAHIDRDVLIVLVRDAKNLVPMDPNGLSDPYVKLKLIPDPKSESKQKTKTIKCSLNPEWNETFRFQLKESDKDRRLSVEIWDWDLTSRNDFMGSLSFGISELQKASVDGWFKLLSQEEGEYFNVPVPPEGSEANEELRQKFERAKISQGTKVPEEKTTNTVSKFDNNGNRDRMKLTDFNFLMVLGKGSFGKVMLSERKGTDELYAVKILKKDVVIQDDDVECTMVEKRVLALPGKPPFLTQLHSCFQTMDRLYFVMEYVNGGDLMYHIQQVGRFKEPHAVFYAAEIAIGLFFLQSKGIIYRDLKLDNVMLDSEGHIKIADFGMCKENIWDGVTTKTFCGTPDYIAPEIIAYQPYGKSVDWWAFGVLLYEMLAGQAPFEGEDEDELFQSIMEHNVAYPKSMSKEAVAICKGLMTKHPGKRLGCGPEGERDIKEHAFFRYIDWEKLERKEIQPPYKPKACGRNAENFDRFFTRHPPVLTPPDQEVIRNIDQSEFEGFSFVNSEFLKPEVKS

CaMKII = format: biochemical
[4] = system: A2780 ovarian carcinoma xenografts; assay: A2780 xenograft ovarian cancer model; format: in vivo, nude mice
AMPK = assay: Upstate kinase Profiler counter-screening; format: biochemical
tumor [5] = conditions: various dosages, 2 hour or 8 hour IV infusion, 21-day dosing cycle
phospho-Rb Ser 807/811 = conditions: single dose IP 40 mg/kg; samples post dose vs T0
Source text: Skin samples were harvested at various intervals following dosing and compared with biopsies harvested prior to dosing (T0). Biopsied samples were fixed overnight in 10% formalin.

cSRC = molecular target: T2, cSRC (Homo sapiens, UniProt P12931); assay: Upstate kinase Profiler counter-screening; format: biochemical
T2 construct: purchased Upstate
T2 sequence (P12931 whole entry, species assumed): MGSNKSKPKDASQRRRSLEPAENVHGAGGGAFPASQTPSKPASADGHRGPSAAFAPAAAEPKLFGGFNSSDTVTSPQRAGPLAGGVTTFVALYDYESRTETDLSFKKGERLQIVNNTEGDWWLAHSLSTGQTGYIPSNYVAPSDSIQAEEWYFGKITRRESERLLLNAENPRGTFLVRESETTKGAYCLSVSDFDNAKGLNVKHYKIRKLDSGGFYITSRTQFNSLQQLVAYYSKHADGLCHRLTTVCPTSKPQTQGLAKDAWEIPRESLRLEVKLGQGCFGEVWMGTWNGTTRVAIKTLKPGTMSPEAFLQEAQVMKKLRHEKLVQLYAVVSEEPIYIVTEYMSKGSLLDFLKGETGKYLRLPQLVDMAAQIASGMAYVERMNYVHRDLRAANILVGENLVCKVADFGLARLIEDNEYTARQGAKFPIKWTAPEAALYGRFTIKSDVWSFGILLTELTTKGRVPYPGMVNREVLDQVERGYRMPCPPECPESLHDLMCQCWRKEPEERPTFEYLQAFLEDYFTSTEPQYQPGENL

H82 (SCLC) = assay: xenograft tumor model
CDK6/cyclinD3 = molecular target: T3, CDK6/cyclinD3 (Homo sapiens, UniProt Q00534); assay: Upstate kinase Profiler counter-screening; format: biochemical; conditions: at 1 μM
T3 construct: purchased Upstate
T3 sequence (Q00534 whole entry, species assumed): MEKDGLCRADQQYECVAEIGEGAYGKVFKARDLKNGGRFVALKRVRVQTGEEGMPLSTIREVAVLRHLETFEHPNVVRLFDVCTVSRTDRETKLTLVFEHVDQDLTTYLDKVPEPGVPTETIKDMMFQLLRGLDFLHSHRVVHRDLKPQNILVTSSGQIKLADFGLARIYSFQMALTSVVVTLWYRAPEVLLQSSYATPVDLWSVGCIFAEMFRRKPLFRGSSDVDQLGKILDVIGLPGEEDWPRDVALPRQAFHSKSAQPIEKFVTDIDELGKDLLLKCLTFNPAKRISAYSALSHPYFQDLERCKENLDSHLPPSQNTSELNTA
T3 sequence (P30281 whole entry partner, species assumed): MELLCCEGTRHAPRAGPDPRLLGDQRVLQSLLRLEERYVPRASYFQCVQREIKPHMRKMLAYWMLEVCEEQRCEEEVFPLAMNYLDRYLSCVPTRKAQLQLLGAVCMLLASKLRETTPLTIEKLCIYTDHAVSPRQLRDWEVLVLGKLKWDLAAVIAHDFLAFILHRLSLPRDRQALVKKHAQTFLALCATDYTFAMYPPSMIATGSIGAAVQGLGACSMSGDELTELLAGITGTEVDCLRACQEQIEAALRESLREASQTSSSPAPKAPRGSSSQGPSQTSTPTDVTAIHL

PKCα = molecular target: T4, PKCα (Homo sapiens, UniProt P17252); assay: Upstate kinase Profiler counter-screening; format: biochemical
T4 construct: purchased Upstate

CDK7/cyclinH/MAT1 = molecular target: T5, CDK7/cyclinH/MAT1 (Homo sapiens, UniProt P50613); assay: Upstate kinase Profiler counter-screening; format: biochemical
T5 construct: purchased Upstate
T5 sequence (P50613 whole entry, species assumed): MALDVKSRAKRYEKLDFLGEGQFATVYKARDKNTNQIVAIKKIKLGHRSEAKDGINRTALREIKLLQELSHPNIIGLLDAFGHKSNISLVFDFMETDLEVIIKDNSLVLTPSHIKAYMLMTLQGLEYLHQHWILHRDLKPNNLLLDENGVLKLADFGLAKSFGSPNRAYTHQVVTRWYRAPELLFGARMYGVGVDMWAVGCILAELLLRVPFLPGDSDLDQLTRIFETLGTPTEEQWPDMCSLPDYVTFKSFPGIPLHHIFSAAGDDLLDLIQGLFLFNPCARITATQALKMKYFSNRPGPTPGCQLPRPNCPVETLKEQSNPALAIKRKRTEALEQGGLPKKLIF
T5 sequence (P51946 whole entry partner, species assumed): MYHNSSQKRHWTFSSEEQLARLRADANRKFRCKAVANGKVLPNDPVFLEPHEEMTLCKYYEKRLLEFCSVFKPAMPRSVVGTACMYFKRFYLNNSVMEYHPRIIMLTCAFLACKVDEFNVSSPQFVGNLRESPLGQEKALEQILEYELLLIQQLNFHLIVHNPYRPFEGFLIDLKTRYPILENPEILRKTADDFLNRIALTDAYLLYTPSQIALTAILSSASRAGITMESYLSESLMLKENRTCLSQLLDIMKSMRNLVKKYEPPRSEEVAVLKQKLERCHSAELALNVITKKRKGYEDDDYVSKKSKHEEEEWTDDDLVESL
T5 sequence (P51948 whole entry partner, species assumed): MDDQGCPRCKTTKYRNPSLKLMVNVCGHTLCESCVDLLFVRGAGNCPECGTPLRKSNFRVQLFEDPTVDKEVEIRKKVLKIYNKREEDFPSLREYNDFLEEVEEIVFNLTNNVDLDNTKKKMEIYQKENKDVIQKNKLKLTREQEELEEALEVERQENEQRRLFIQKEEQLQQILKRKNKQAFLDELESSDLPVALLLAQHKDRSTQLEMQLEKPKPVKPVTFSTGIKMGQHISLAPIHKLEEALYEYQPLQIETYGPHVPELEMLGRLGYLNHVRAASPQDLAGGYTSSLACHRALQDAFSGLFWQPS

xenograft models = conditions: plasma trough concentrations of less than 25 nM for less than two hours
[6] = system: various human tumor cell lines; conditions: read-out: Mean In-Cell IC50, 24 hours exposure
Procedure: (§1) The level of activation of apoptosis was also assessed by determining the levels of activated caspase in each cell line. […] The cells were evaluated fluorometrically for levels of activated caspase six hours post washout. Samples of each cell line were also subjected to SDS-PAGE and subsequently immunoblotted for p85 PARP caspase cleavage product.

[7] = system: various human tumor cell lines; conditions: for Caspase Activation (number of sensitive cell lines out of total tested/single exposure): two hour exposure to less than 0.1 micromolar
Procedure: as §1

A2780 cells [8] = conditions: two hours exposure, 24 hours after exposure
Procedure: Cells were then fixed, stained with an FITC-conjugated, anti-BrdU monoclonal antibody and propidium iodide. The cells thus prepared were analyzed using 2-color flow cytometry with doublet-discrimination.

Rsk2 = molecular target: T6, Rsk2 (Homo sapiens, UniProt P51812); assay: Upstate kinase Profiler counter-screening; format: biochemical
T6 construct: purchased Upstate
T6 sequence (P51812 whole entry, species assumed): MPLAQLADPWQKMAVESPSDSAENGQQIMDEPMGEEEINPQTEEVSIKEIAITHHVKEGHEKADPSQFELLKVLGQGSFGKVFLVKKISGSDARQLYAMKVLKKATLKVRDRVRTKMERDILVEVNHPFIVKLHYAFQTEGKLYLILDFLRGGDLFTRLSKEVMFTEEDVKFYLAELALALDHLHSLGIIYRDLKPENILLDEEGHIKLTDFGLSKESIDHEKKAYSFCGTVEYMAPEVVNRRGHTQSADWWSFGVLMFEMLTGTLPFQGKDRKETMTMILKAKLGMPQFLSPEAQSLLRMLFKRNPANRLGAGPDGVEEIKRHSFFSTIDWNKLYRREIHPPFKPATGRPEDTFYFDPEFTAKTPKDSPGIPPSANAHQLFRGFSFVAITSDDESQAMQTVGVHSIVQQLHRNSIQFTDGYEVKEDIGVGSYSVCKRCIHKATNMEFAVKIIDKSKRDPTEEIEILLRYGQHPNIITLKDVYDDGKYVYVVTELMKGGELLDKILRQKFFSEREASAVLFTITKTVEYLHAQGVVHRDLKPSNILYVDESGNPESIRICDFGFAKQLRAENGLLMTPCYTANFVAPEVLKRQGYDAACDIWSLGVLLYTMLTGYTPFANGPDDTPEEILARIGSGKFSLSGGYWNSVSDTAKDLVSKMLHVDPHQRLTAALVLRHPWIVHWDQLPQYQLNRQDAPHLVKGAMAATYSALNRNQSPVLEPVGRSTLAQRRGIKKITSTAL

A2780 cells [9] = conditions: 2 hours exposure to 0.1 mM
Procedure: Following washout, lysates were prepared from the cells to assess the duration of the effects of exposure.

Lyn = molecular target: T7, Lyn (Homo sapiens, UniProt P07948); assay: Upstate kinase Profiler counter-screening; format: biochemical
T7 construct: purchased Upstate
T7 sequence (P07948 whole entry, species assumed): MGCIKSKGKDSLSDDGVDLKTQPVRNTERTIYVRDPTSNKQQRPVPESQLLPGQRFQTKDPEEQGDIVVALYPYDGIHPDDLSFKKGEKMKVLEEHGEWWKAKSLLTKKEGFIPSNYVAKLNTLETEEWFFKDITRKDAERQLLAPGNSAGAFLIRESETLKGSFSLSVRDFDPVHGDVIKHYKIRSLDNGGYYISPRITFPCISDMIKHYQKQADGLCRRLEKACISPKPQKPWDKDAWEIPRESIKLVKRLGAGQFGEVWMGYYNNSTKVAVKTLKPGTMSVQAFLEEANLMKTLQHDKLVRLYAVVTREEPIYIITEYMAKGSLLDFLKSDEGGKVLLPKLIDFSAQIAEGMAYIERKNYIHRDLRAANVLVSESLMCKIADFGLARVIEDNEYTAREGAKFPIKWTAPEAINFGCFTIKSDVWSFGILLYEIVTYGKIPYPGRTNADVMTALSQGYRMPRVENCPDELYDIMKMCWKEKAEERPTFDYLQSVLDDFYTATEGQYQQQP

CCc1cnn2c(NCc3ccc[n+]([O-])c3)cc(N3CCCC[C@H]3CCO)nc12 [Formula II]
Status (tumor [1]; adenoidcystic carcinoma patient, 7.11 mg/m^2, 5 cycles): disease progression
Status (tumor [1]; melanoma patient, 3.63 mg/m^2, 9 cycles): disease progression
Status (tumor [1]; prostate patient, 3.63 mg/m^2, 4 cycles): disease progression
Status (tumor [1]; pseudomyxoma patient, 2.59 mg/m^2, 9 cycles): off study with stable disease
tumor markers (FIG. 11, incl. CA125) (tumor [1]; pseudomyxoma peritonei patient, after 6 cycles of 28 day treatment at 2.59 mg/m^2): falling tumor markers
responses by RECIST criteria in the population (tumor [1]; various dosages, 2 hour IV infusion, 28-day dosing cycle): No complete or partial responses
effect on platelets or red blood cells [2]: No effect
exposure level at which caspase activity is maximal [3]: 0.05 µM
% remaining activity (PKCβII; at 1 μM): 110%
% remaining activity (PKCβII; at 10 μM): 113%
% remaining activity (CaMKII; at 1 μM): 102%
% remaining activity (CaMKII; at 10 μM): 91%
tumor growth inhibition ([4]; 8 mg/kg IP daily for 10 days): 70%
tumor growth inhibition ([4]; 16 mg/kg IP daily for 10 days): 70%
tumor growth inhibition ([4]; 32 mg/kg IP daily for 10 days): 90%
tumor growth inhibition ([4]; 48 mg/kg IP daily for 10 days): 96%
50% inhibition level (minimum effective dose) ([4]; IP daily for 10 days): less than 8 mg/kg
MED ([4]; once per day IP for 7 days, dose inducing at least 50% inhibition of tumor growth): 5 mg/kg
% remaining activity (AMPK; at 1 μM): 94%
% remaining activity (AMPK; at 10 μM): 82%
responses by RECIST criteria in the population (tumor [5]): no complete or partial responses
phospho-Rb in proliferating epithelial cells of basal epithelium and hair follicles (phospho-Rb Ser 807/811): rapid and sustained suppression of phospho-Rb
% remaining activity (cSRC; at 1 μM): 117%
% remaining activity (cSRC; at 10 μM): 111%
% inhibition observed at dosage of 5 mg/kg Formula II (H82 (SCLC); first Formula II column): 56%
% inhibition observed at dosage of 5 mg/kg Formula II (H82 (SCLC); second Formula II column): 65%
% remaining activity (CDK6/cyclinD3): 12%
% remaining activity (PKCα; at 1 μM): 96%
% remaining activity (PKCα; at 10 μM): 94%
% remaining activity (CDK7/cyclinH/MAT1; at 1 μM): 7%
% remaining activity (CDK7/cyclinH/MAT1; at 10 μM): 4%
effect on xenograft tumors (xenograft models): tumor growth inhibition or regression
IC50 ([6]; Bladder): 10 nM
IC50 ([6]; Breast): 8 nM
IC50 ([6]; Colon): 17 nM
IC50 ([6]; Leukemia): 6 nM
IC50 ([6]; Liver): 8 nM
IC50 ([6]; Lymphoma (NHL)): 7 nM
IC50 ([6]; Mantle Cell lymphoma): 7 nM
IC50 ([6]; Melanoma): 9 nM
IC50 ([6]; NSCLC): 14 nM
IC50 ([6]; Ovarian): 14 nM
IC50 ([6]; Pancreatic): 15 nM
IC50 ([6]; Prostate): 12 nM
IC50 ([6]; SCLC): 6 nM
Caspase Activation (number of sensitive cell lines out of total tested/single exposure) ([7]; Bladder): 1 of 2
Caspase Activation (number of sensitive cell lines out of total tested/single exposure) ([7]; Breast): 6 of 7
Caspase Activation (number of sensitive cell lines out of total tested/single exposure) ([7]; Colon): 5 of 9
Caspase Activation (number of sensitive cell lines out of total tested/single exposure) ([7]; Leukemia): 5 of 6
Caspase Activation (number of sensitive cell lines out of total tested/single exposure) ([7]; Liver): 2 of 2
Caspase Activation (number of sensitive cell lines out of total tested/single exposure) ([7]; Lymphoma (NHL)): 8 of 8
Caspase Activation (number of sensitive cell lines out of total tested/single exposure) ([7]; Mantle Cell lymphoma): 3 of 4
Caspase Activation (number of sensitive cell lines out of total tested/single exposure) ([7]; Melanoma): 9 of 9
Caspase Activation (number of sensitive cell lines out of total tested/single exposure) ([7]; NSCLC): 8 of 9
Caspase Activation (number of sensitive cell lines out of total tested/single exposure) ([7]; Ovarian): 5 of 7
Caspase Activation (number of sensitive cell lines out of total tested/single exposure) ([7]; Pancreatic): 11 of 15
Caspase Activation (number of sensitive cell lines out of total tested/single exposure) ([7]; Prostate): 4 of 5
Caspase Activation (number of sensitive cell lines out of total tested/single exposure) ([7]; SCLC): 2 of 6
share of cell lines tested with caspase activation and apoptosis detected ([7]; single exposure): over 85%
exposure completely suppressing DNA synthesis (A2780 cells [8]): greater than 0.5 micromolar
exposure showing accumulation of subG1 (apoptotic cells) (A2780 cells [8]): greater than 0.5 micromolar
% remaining activity (Rsk2; at 1 μM): 104%
% remaining activity (Rsk2; at 10 μM): 76%
period of suppression of RB phosphorylation and caspase activation after the washout (A2780 cells [9]): exceeding 6 hours
% remaining activity (Lyn; at 1 μM): 108%
% remaining activity (Lyn; at 10 μM): 110%
effect on tumor volume (A549 NSCLC xenografts; 5 dosing schedules (20, 29, 52, 3x17, 87 mg/kg), total 260 mg/kg): regression in tumor volume and mass
% inhibition observed at dosage of 5 mg/kg Formula II (A549 NSCLC xenografts; first Formula II column): 73%
% inhibition observed at dosage of 5 mg/kg Formula II (A549 NSCLC xenografts; second Formula II column): 160 (regression) %
